Data as given in patent publication US5962291A, “Metal dependent catalytic antibodies and method for producing the same” (The Regents of the University of Colorado, priority 1997, dated 1999).

Tests used:
Format in all cases: biochemical, mice
[1] = tested on: monoclonal antibody 6A1A6 (metal dependent catalytic antibody, IgG); test: Hydrolysis of 14C-labeled ATP, ADP and AMP by antibody 6A1A6, silica TLC analysis; conditions: for Km / Vmax: 37° C., 0.5 mM EDTA, 1 mM MgCl2, 40 mM CHES, pH 9.0, 1.9 μM antibody
Procedure: (§1) General. […] EDTA was added to reactions to a concentration that removed the catalytic activity. MgCl2 or other metal salts were then added back to the reactions at the optimum level. Antibody concentration was adjusted for each system to obtain useable data in a reasonable reaction time and varied from 0.5-4 μM.
(§2) Kinetic analyses were done by standard methods as described. Rates were defined as initial velocities and reported in min^-1 or sec^-1. Each assay was done in duplicate or triplicate to allow for error analysis. Background rates were measured using an identical reaction mixture without antibody present. Michales-Menten parameters kcat and Km were derived from Eadie-Hofstee or weighted Lineweaver-Burk plots (using the computer program Enzyme Kinetics 1.0, Macintosh, Trinity Software). Inhibitory constants, Ki, were derived from Dixon or Lineweaver-Burk plots.
Thin Layer Chromatography. Reactions were quenched and analyzed by spotting on a TLC plate. Two systems were used. PEI-cellulose coated plates were run in 1.5 M formic acid/0.5 M LiCl (Rf values: […], 0.3; Pi, 0.8). (In some cases it was useful to pre-run the TLC plate in H2 O to reduce smearing). Silica coated plates were run in isopropanol:NH4OH:H2 O, (50:25:25) (Rf values: ATP, 0.36; ADP, 0.55; AMP, 0.7; and Adenosine, 0.95). Assays involving the visualization of pyrophosphate used two TLC systems simultaneously: the silica system described (Rf values: PPi,O; Pi, 0.3), and a PEI-cellulose system run in 0.3 M sodium phosphate, pH=7.0 (Rf values: ATP, 0.2; ADP, 0.4; AMP, 0.6; PPi, 0.15; and Pi, 0.65). Radioactivity was quantitated using a Molecular Dynamics Phosphorlmager.
Kinetic Assays Using ^14 C-Labeled Compounds. Assays were performed with [8-^14 C]ATP, [8-^14 C]ADP, and [^14 C(U)]AMP. […] Immediately before each reaction, the solution was evaporated to dryness in vacuo and the compound resuspended in an equal volume of water. […] Reactions were quenched and analyzed by the silica TLC system.

[2] = molecular target: monoclonal antibody 6A1A6 (metal dependent catalytic antibody, IgG); test: Spectrophotometric (405 nm) hydrolysis of p-nitrophenyl ester substrates by antibody 6A1A6; conditions: for Ki: pH 9.0, 10 mM MgCl2
Procedure: as §1, with “General. Because antibody 6A1A6, see Table 2, was metal dependent, a few precautions were taken to insure consistent results for all assays.” for “General.”
as §2
p-Nitrophenyl Esters as Substrates. A useful system to assess cleavage utilized substrates containing esters with p-nitrophenol leaving groups. This assay was fast, reproducible and much more trouble free than the fluorescence assays. It relied on the fact that the anion cleavage product, p-nitrophenolate, is yellow at basic pH and its appearance can be followed spectrophotometrically at 405 nm.
Antibody 6A1A6 was assayed spectrophotometrically for its ability to cleave the above mentioned substrates containing the p-nitrophenyl leaving group at 405 nm using a Molecular Devices Vmax® kinetic microplate reader. Kinetic assays were performed in triplicate at 25° C. in 40 mM TAPS, 150 mM NaCl, 10 mM MgCl2, 0.5-0.6 μM antibody, pH=9.0.
Phosphodiester Substrate. […] This represents the first report of a catalytic antibody capable of hydrolyzing a phosphodiester bond. pNPPT is normally used as a substrate for snake venom phosphodiesterase. […] The uncatalyzed rate under these conditions was 1.35×10^-6 min^-1. […] The Ki is defined as the negative x-coordinate of the intersection point of the lines in a Dixon plot.
Phosphomonoester Substrate. Under reaction condition identical to those used for pNPPT, the antibody also catalyzes the hydrolysis of p-nitrophenyl phosphate (pNPP). […] The uncatalyzed rate was 3.4×10^-6 min^-1.

[3] = molecular target: monoclonal antibody 6A1A6 (metal dependent catalytic antibody, IgG); test: Hydrolysis of oligomer T15 (DNase activity) by antibody 6A1A6, inhibition by hapten; conditions: substrate oligomer T15; pH 9, 1 mM Mg2+; read-out: Ki (competitive inhibition of DNase activity)
Procedure: as §2
It was unknown what type of specificity antibody 6A1A6 would have for a DNA polymer. Several possible activities were monitored under conditions of pH 9 and 1 mM Mg^2+ that were optimal for ATP hydrolysis.
Kinetic Parameters. Kinetic experiments were performed with T15 as a substrate. Due to the very slow rate of hydrolysis, experiments were done under single turnover conditions with enzyme excess.
Control Experiments. Standard controls were performed using oligomer T15 as a substrate. Immunoprecipitation reduced activity by 93%. The remaining activity could be due to incomplete immunoprecipitation, but could also be due to a contaminating nuclease. […] Fab fragments retained 46±17% of the original activity.

[4] = substrate pNPP, read-out: Ki (competitive inhibition of pNPP hydrolysis)

Row | Km [1] [µM] | Compound | Vmax [1] [s⁻¹] | Ki [2, 4] [µM] | further results
1 | 70 ± 8 | Nc1ncnc2c1ncn2[C@@H]1O[C@H](COP(=O)(O)OP(=O)(O)O)[C@@H](O)[C@H]1O [ADP, adenosine diphosphate] | 120 ± 20 |  | 
2 | 161 ± 21 | Nc1ncnc2c1ncn2[C@@H]1O[C@H](COP(=O)(O)O)[C@@H](O)[C@H]1O [AMP] | 102 ± 3 |  | 
3 |  | O=[N+]([O-])c1ccc(O)cc1 [p-nitrophenol] |  | 9.31 ± 1.94 | Ki ([2]; substrate pNPPT, product inhibition, read-out: Ki for p-nitrophenol (Dixon plot)): 10.1 ± 2.1 µM
4 |  | Cc1cn([C@H]2C[C@H](O)[C@@H](COP(=O)(O)Oc3ccc([N+](=O)[O-])cc3)O2)c(=O)[nH]c1=O [pNPPT, thymidine-5'-monophosphate-p-nitrophenyl ester] |  |  | kcat (apparent), pNPPT as substrate ([2]; 10 mM MgCl2, 40 mM TAPS, 150 mM NaCl, pH 9.0, 25° C.): 0.031±0.05 min^-1; Km ([2]; 10 mM MgCl2, 40 mM TAPS, 150 mM NaCl, pH 9.0, 25° C., read-out: Km (apparent), pNPPT as substrate): 290 ± 80 µM
5 |  | thymidine 3'-O-(7-hydroxy-4-methyl coumarin) phosphorodithioate [hapten] |  | 199 ± 54 | Ki ([1]; substrate ATP, read-out: Ki (competitive inhibitor of ATP hydrolysis)): 559 µM; Ki [3]: 758 ± 57 µM

Row | Compound | Km [1] [µM] | Vmax [1] [s⁻¹] | Ki [2, 4] [µM] | further results
6 | Nc1ncnc2c1ncn2[C@@H]1O[C@H](COP(=O)(O)OP(=O)(O)OP(=O)(O)O)[C@@H](O)[C@H]1O [ATP, Adenosine triphosphate] | 1400 ± 123 |  |  | 
